How the values were obtained:
[1] = test system: Tyrosine-protein kinase ABL1 (Homo sapiens), P00519 [F317I]
[2] = target: Dual specificity protein kinase CLK4 (Homo sapiens) (UniProt Q9HAZ1)
[3] = target: Epithelial discoidin domain-containing receptor 1 (Homo sapiens) (UniProt Q08345)
[4] = test system: Epidermal growth factor receptor (Homo sapiens), P00533 [L858R]
[5] = target: T1, Ephrin type-B receptor 3 (Homo sapiens) (UniProt P54753)
T1 sequence (whole entry): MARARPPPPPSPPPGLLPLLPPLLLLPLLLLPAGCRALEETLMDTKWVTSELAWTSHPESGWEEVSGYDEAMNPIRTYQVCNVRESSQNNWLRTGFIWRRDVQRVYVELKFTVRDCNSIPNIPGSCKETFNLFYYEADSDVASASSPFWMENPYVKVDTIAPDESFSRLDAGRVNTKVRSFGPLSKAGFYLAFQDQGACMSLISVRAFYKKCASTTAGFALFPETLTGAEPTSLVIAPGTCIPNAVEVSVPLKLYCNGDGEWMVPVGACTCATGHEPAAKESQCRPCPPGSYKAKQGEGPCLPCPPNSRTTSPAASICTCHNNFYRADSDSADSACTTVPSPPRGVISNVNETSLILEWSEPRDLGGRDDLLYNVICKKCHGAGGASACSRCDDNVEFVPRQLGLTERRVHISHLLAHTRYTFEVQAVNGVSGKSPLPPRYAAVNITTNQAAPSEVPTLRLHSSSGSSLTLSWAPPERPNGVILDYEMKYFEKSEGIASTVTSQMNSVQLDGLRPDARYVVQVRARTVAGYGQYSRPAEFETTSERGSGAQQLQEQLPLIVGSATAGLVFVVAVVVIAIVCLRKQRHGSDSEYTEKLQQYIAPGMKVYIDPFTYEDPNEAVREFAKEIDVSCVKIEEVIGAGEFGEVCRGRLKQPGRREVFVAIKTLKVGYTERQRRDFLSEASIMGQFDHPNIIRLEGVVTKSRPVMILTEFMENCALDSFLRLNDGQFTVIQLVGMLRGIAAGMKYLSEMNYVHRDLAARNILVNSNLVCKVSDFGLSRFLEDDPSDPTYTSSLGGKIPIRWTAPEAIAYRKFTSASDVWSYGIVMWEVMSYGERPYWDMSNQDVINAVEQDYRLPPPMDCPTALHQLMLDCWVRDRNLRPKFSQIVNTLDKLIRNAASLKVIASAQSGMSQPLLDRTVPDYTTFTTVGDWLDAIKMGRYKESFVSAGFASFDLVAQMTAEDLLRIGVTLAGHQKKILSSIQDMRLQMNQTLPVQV

[6] = test system: T2, Receptor-type tyrosine-protein kinase FLT3 (Homo sapiens), P36888 [D835Y]
T2 sequence (whole entry): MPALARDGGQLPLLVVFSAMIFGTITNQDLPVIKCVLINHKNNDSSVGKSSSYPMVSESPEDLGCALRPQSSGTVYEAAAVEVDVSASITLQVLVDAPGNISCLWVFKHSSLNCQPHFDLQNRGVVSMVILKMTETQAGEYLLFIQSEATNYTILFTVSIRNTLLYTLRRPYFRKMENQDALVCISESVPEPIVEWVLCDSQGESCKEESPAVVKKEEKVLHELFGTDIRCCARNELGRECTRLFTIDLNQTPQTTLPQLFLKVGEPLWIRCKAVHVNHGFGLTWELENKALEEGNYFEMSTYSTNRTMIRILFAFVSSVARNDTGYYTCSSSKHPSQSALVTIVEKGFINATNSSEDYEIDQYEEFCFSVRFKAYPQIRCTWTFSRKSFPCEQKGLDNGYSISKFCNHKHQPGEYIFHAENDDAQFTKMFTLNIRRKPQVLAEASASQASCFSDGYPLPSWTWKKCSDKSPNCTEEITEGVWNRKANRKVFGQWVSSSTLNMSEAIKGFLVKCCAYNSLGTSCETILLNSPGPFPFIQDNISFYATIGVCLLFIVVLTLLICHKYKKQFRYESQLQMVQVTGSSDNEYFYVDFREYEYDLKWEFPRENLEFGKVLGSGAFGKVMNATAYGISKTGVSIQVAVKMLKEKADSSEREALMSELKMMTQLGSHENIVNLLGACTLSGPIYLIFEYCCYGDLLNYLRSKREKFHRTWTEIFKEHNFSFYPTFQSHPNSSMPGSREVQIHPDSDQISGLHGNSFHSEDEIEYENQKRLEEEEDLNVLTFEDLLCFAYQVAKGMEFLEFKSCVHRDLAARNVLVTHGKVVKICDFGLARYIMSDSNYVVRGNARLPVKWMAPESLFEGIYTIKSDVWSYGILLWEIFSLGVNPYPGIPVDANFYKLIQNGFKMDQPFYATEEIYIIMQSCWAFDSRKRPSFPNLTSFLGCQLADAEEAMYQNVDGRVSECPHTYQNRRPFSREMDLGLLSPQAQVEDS

[7] = target: Tyrosine-protein kinase Lck (Homo sapiens) (UniProt P06239)
Chain of Tyrosine-protein kinase Lck (Homo sapiens) (P06239 2-509 limits assumed): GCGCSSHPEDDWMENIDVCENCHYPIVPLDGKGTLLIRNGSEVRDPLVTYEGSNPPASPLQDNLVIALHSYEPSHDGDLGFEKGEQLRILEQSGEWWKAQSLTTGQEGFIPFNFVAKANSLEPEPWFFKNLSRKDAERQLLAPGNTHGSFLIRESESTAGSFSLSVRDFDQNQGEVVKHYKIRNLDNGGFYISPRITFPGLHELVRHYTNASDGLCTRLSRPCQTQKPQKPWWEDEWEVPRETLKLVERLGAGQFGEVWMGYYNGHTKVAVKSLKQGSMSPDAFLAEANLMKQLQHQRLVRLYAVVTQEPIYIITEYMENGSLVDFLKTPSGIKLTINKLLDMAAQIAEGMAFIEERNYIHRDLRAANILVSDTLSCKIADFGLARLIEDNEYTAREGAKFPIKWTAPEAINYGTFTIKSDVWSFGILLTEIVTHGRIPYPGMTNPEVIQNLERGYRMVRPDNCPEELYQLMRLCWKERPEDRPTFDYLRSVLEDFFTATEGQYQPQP

[8] = target: Mitogen-activated protein kinase 14 (Homo sapiens) (UniProt Q16539)
[9] = test system: Phosphatidylinositol 4,5-bisphosphate 3-kinase catalytic subunit alpha isoform (Homo sapiens), P42336 [E545A]
[10] = target: Vascular endothelial growth factor receptor 2 (Homo sapiens) (UniProt P35968)
Chain of Vascular endothelial growth factor receptor 2 (Homo sapiens) (P35968 whole entry): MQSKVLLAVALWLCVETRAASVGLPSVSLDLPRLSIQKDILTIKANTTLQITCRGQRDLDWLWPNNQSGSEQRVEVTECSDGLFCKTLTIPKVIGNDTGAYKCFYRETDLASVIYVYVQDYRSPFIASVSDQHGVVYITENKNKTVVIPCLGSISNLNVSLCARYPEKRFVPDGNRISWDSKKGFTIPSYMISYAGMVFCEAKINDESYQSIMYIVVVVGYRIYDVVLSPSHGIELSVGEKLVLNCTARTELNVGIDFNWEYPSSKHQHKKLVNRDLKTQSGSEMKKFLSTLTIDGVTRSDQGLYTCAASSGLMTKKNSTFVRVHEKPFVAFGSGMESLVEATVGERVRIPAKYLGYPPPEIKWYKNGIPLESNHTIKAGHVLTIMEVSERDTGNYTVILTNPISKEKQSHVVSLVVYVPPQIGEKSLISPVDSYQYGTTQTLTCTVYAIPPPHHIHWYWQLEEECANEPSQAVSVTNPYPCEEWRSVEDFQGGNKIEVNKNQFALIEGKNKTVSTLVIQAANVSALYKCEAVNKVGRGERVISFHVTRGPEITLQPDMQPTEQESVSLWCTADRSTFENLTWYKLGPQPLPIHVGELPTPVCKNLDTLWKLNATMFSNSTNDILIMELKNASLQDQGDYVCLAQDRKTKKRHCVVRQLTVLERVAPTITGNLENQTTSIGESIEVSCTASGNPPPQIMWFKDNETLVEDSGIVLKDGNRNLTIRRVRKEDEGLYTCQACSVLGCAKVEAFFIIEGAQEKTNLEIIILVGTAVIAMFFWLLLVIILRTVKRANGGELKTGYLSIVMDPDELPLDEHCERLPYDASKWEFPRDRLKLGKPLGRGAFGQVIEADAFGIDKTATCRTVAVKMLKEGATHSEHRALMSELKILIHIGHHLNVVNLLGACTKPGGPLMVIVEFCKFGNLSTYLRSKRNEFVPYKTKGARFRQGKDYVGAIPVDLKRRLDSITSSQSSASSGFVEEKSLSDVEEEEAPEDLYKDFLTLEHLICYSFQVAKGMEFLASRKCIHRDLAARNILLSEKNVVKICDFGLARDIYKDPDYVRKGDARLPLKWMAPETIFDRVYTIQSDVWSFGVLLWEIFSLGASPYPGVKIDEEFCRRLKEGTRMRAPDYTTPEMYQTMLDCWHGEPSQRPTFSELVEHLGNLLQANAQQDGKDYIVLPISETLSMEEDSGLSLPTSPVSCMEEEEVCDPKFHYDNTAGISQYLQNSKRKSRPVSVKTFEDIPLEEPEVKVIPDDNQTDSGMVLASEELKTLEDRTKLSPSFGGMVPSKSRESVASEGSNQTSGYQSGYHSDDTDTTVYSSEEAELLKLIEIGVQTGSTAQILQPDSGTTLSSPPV

[11] = target: 5-hydroxytryptamine receptor 1D (Homo sapiens) (UniProt P28221); settings: Compound concentration 10.0 uM
Chain of 5-hydroxytryptamine receptor 1D (Homo sapiens) (P28221 whole entry): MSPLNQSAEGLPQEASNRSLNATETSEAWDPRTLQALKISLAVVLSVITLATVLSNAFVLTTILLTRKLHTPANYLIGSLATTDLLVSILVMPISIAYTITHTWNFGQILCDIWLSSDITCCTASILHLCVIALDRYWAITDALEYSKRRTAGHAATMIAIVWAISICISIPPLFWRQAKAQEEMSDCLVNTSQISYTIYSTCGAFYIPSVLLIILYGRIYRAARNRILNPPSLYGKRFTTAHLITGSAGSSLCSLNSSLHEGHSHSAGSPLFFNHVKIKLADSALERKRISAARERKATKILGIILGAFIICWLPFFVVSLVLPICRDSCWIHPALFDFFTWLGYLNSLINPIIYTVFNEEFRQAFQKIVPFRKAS

[12] = target: T3, Alpha-2C adrenergic receptor (Homo sapiens) (UniProt P18825); settings: Compound concentration 10.0 uM
T3 sequence (whole entry): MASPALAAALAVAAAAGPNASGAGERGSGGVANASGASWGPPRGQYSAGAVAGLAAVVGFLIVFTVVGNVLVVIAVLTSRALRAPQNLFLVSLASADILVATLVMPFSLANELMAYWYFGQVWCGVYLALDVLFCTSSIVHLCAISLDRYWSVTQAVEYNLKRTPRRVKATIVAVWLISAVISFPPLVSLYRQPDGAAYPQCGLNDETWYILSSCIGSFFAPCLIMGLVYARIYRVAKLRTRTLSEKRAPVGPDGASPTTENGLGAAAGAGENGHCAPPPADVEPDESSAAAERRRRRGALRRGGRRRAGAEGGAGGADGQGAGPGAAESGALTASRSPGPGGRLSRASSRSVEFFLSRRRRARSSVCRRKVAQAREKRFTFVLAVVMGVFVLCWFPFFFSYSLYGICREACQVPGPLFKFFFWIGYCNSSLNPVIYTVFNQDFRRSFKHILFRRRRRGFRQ

[13] = Compound concentration 1000.0 nM
[14] = Compound concentration 100.0 nM

Chain of Epithelial discoidin domain-containing receptor 1 (Homo sapiens) (Q08345 whole entry, the tested form may be a part): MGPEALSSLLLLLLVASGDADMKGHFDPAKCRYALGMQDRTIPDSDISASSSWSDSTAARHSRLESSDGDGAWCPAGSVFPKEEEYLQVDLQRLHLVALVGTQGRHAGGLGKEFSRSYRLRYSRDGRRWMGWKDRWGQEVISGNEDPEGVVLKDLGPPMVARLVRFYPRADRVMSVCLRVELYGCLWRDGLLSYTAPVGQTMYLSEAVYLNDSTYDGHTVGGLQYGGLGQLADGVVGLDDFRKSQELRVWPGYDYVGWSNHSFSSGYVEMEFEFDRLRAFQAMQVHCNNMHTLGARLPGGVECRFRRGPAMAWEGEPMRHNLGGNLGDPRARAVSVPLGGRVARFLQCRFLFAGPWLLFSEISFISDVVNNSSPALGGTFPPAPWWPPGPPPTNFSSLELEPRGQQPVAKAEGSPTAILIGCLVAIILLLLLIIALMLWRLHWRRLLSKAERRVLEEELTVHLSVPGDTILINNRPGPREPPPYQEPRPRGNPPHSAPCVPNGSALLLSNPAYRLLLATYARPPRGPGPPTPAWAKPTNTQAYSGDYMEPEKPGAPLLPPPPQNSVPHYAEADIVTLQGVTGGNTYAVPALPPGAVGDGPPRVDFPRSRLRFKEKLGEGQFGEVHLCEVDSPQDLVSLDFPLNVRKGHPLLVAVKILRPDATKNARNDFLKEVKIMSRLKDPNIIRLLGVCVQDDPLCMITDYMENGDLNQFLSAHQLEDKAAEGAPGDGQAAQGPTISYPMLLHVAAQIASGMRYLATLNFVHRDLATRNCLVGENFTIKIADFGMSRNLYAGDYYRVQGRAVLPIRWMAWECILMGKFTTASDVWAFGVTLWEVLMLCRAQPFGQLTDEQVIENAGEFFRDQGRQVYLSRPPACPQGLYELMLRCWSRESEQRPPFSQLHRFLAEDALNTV
Chain of Dual specificity protein kinase CLK4 (Homo sapiens) (Q9HAZ1 whole entry, looked up, the tested form may be a part): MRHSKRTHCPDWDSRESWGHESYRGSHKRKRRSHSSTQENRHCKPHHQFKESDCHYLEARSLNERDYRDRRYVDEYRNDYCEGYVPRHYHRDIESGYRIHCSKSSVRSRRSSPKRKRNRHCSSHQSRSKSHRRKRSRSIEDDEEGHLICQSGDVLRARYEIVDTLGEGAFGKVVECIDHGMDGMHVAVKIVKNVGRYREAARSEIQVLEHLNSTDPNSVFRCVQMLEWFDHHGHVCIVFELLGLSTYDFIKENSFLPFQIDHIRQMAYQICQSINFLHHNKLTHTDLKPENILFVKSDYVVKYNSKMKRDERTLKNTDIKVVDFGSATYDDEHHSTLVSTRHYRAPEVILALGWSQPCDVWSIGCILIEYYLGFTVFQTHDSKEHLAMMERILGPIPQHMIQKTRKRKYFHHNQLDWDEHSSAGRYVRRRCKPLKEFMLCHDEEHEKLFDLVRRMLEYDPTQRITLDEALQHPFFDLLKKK
Chain of Tyrosine-protein kinase ABL1 (Homo sapiens), P00519 [F317I] (P00519 whole entry F317I): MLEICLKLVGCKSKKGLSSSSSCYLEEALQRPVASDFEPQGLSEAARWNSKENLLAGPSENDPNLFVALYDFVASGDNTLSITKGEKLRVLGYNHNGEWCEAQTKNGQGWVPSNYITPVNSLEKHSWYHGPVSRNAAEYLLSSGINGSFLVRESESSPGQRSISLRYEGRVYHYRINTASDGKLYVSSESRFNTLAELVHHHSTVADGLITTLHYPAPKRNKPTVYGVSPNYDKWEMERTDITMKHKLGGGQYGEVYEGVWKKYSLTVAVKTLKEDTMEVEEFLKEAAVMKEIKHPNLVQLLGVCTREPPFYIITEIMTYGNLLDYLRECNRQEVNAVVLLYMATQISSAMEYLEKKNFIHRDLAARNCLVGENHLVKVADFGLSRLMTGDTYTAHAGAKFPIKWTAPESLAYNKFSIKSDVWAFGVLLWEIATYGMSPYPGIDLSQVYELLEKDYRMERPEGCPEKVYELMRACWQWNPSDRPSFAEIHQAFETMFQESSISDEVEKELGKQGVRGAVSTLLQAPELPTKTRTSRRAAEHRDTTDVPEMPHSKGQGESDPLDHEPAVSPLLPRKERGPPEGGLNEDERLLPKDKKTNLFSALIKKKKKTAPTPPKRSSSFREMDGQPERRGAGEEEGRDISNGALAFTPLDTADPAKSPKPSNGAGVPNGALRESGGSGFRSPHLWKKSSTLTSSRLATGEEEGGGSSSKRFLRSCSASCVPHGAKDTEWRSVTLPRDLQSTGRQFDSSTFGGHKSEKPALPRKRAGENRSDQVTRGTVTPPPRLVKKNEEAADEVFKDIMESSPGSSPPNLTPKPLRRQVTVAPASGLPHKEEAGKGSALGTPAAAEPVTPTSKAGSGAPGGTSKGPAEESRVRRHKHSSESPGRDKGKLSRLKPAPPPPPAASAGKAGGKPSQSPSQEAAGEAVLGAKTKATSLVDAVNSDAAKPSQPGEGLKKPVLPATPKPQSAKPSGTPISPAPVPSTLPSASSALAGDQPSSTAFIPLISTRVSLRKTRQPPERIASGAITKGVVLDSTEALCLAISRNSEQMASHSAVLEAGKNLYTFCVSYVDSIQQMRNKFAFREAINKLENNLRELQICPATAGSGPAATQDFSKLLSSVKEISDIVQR

C[C@@H]1CN(c2cc(-c3nn(C)c4ccc(OC5(C)CC5)cc34)ncn2)C[C@H](C)O1 [MLi-2-NC]
inactive: residual activity [1, 13] 75% | residual activity [2, 13] 100% | residual activity [3, 13] 68% | residual activity [4, 13] 95% | residual activity [5, 13] 100% | residual activity [6, 13] 100% | residual activity [7, 13] 94% | residual activity [8, 13] 100% | residual activity [9, 13] 100% | residual activity [10, 13] 75% | inhibition [11] 4.11% | inhibition [12] 15.1%

C[C@@H]1CN(c2cc(-c3n[nH]c4ccc(OC5(C)CC5)cc34)ncn2)C[C@H](C)O1 [MLi-2]
inactive: residual activity [1, 14] 80% | residual activity [2, 14] 87% | residual activity [3, 14] 91% | residual activity [4, 14] 82% | residual activity [5, 14] 98% | residual activity [6, 14] 100% | residual activity [7, 14] 100% | residual activity [8, 14] 95% | residual activity [9, 14] 76% | residual activity [10, 14] 82% | inhibition [11] -7.94% | inhibition [12] 7.85%

From ChEMBL document CHEMBL4507291 (2021)
